pIC50: −log10 of the molar value.
Experiments:
HLA-A*2401 [1] = test: Competition based cellular binding assay, HLA-A*2401 (B-cell line VIJF); set-up: species or system human
HLA-A*2401 [2] = test: Stability of peptide-HLA complex, binding at 4° C. and 20° C., HLA-A*2401; set-up: species or system human; conditions: for Peptide Binding Stability: HLA-A*2401, IC50 at 20° C. vs 4° C.
Experimental: Stability of other peptide-HLA complexes was preferably determined as follows. […] Peptides of >50% of the initial complexes was lost within 2 hours were considered unstable. […] The rest was designated as unstable peptide binding.
Peptides 8-11 residues in length were selected based on typical anchor residues for HLA-A*0101, A*0301, A*1101 and HLA-A*2401 (Rammensee H G et al). The capacity of peptides to bind was tested in a competition based cellular binding assay as previously described (van der Burg S H et al 1995). FL-labeled reference peptides were synthesized as Cys-derivative (van der Burg S H et al 1995). Fluorescence labeled reference peptides used were: YLEPAC(FL)AK (SEQ ID NO: 87) (HLA-A*0101) and KVFPC(FL)ALINK (SEQ ID NO: 88) (HLA-A*1101) (Sette A et al), KVFPC(FL)ALINK (SEQ ID NO: 89) (HLAA*0301) (van der Burg S H et al 1995) and RYLKC(FL)QQLL (SEQ ID NO: 90) (A*2401) (Dai L C et al). B-cell lines used are: CAA (A*0101), EKR (A*0301), BVR (A*1101), VIJF (A*2401). The relative binding capacity of the peptides is expressed as the peptide concentration to inhibit 50% (1050) of the binding of the reference peptide. […] Peptide stabilization for HLA-A*0201 was performed as previously described (van der Burg S H et al, 1996). Peptides of >50% of the initial complexes was lost within 2 hours were considered unstable. Stability of other peptide-HLA complexes was determined as follows. Peptide binding was performed at 4° C. and 20° C. and 1050 were determined. […] The rest was designated as unstable peptide binding.

[3] = target: T1, 20S immuno-proteasomes from mouse B-cell line (RMA) (Mus musculus, UniProt O35955+P28063+P28076); test: In vitro proteasome mediated digestion of 30-mers, mass spectrometry, immunoproteasome RMA; format: biochemical; conditions: 30 residue long precursor peptides
T1 construct: 20S immuno-proteasomes were purified from a mouse B-cell line (RMA); endogenous in cells; host or cells: RMA cells; 20S proteasome purified from them
In short: (§1)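 30-mer peptides (20 μg) digested with 1 μg purified 20S proteasome (JY or RMA immunoproteasome, HeLa household proteasome) at 37° C for 1, 4 and 24 h, stopped with TFA. Nano-ESI Q-TOF MS; fragments quantified by peak intensity as percent of total digested peptide per time point; major cleavage site >1% within first hour.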

[4] = target: T2, 20S immuno-proteasomes from human B-LCL cell line (JY) (Homo sapiens, UniProt P28062+P28065+P40306); test: In vitro proteasome mediated digestion of 30-mers, mass spectrometry, immunoproteasome JY; format: biochemical; conditions: 30 residue long precursor peptides
T2 construct: purified from a mouse B-cell line (RMA) and a human B-LCL cell line (JY); endogenous in cells; host or cells: B-LCL JY cells; 20S proteasome purified from them
In short: as §1

[5] = target: T3, 20S household proteasomes from human tumor cell line (HeLa) (Homo sapiens, UniProt P28072+P28074+Q99436); test: In vitro proteasome mediated digestion of 30-mers, mass spectrometry, household proteasome HeLa; format: biochemical; conditions: 30 residue long precursor peptides
T3 construct: 20S household proteasomes were purified from human tumor cell line (HeLa); endogenous in cells; host or cells: HeLa cells; 20S proteasome purified from them
Experimental: (§2) In the context of the invention, “being inefficiently processed by a proteasome” preferably means that within the first hour of digestion by a proteasome less than 1% of total digested peptide is found. The processing by a proteasome is preferably assessed by incubating a purified proteasome, more preferably a human proteasome with a peptide comprising the potential CTL epitope (30 amino acid length approximately) in a proteasome digestion buffer during at least one hour at 37° C. The reaction is subsequently stopped by adding trifluoroacetic acid. Analysis of the digested peptides is performed with electrospray ionization mass spectrometry (see example 1). Even more preferably, the human proteasome is an immunoproteasome from B-LCL JY cells (Kessler J H et al. 2001).
(§3) 20S immuno-proteasomes were purified from a mouse B-cell line (RMA) and a human B-LCL cell line (JY) and 20S household proteasomes were purified from human tumor cell line (HeLa) as described (Kessler J H et al 2001). To assess kinetics, digestions were performed with different incubation periods as indicated. Briefly, peptides containing the (potential) CTL epitopes (30 mers, 20 μg) were incubated with 1 μg of purified proteasome at 37° C. for 1 h, 4 h and 24 h in 300 μl proteasome digestion buffer, trifluoroacetic acid (30 μl) was added to stop the digestion and samples were stored at −20° C. before mass spectrometric analysis. Electrospray ionization mass spectrometry was performed on a hybrid quadrupole time-of-flight mass spectromter, a Q-TOF (Micromass), equipped with an on-line nanoelectrospray interface with an approximate flow rate of […] as described (Kessler J H et al 2001). The peaks in the mass spectrum were searched in the digested precursor peptide using the Biolynx/proteins software (Micromass) supplied with the mass spectrometer. The intensity of the peaks in the mass spectra was used to establish the relative amounts of peptides generated after proteasome digestion. The relative amounts of the peptides are given as a percentage of the total amount of peptide digested by the proteasome at the indicated incubation time. Major cleavage sites are defined as more than >1% of total digested peptide within the first hour.

HLA-A*0201 = HLA-A*0201 (Homo sapiens, UniProt P04439, D140Y/D185E/D98H/E176V/E277Q/G131W/G231S/I119V/I121R/I166T/I218V/L300P/L318F/N151K/N90K/P208A/P217A/Q86G/Q94H/R138H/R169H/T345S); test: Peptide stabilization for HLA-A*0201; format: binding
HLA-A*0101 = target: T4, HLA-A*0101 (Homo sapiens, UniProt P04439, A114D/A174V/A182V/D101N/D185E/E176A/E190D/L180R/Q94H/R68K/S129P/T187R/V100A/V91M/W191G); test: Stability of peptide-HLA complex, binding at 4° C. and 20° C., HLA-A*0101; conditions: for HLA binding Stability (Table 5): HLA type A1; for Peptide Binding Stability: HLA-A*0101, IC50 at 20° C. vs 4° C.
T4 construct: B-cell lines used are: CAA (A*0101), EKR (A*0301), BVR (A*1101), VIJF (A*2401); endogenous in cells; host or cells: B-cell line CAA

HLA-A*0301 = target: T5, HLA-A*0301 (Homo sapiens, UniProt P04439); test: Stability of peptide-HLA complex, binding at 4° C. and 20° C., HLA-A*0301
T5 construct: B-cell lines used are: CAA (A*0101), EKR (A*0301), BVR (A*1101), VIJF (A*2401); endogenous in cells; host or cells: B-cell line EKR
In short: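 Competition binding used B-cell lines CAA (A*0101), EKR (A*0301), BVR (A*1101) and VIJF (A*2401) against fluorescein-labelled reference peptides. IC50 is the peptide concentration inhibiting 50% of reference binding. Binding was run at 4 °C and 20 °C with IC50 determined at each; complexes losing >50% within 2 hours were deemed unstable.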

proteasome = test: Proteasome processing, summarised over proteasome types (Table 5); format: biochemical; conditions: 30 residue long precursor peptides
Experimental: as §2, §3

Structure (SMILES)	Peptide Binding Affinity (HLA-A*2401 [1]; HLA-A*2401, IC50 category)	Peptide Binding Stability (HLA-A*2401 [2])	Proteasomal Cleavage of C-terminus, IP (RMA) [3]	Proteasomal Cleavage of C-terminus, IP (JY) [4]	Proteasomal Cleavage of C-terminus, HH (HeLa) [5]	further results
CC(C)C[C@H](NC(=O)[C@H](CCCNC(=N)N)NC(=O)[C@H](Cc1ccccc1)NC(=O)CNC(=O)[C@H](Cc1ccc(O)cc1)NC(=O)[C@@H](N)CO)C(=O)NCC(=O)N[C@@H](Cc1ccccc1)C(=O)O [p53 106-113]	high	+ (Stable peptides displayed IC50 at 20 °C that deviated <2 times of the IC50 at 4° C.)	+ (Major cleavage sites are defined as more than >1% of total digested peptide within the first hour)	+ (Major cleavage sites are defined as more than >1% of total digested peptide within the first hour)	+ (Major cleavage sites are defined as more than >1% of total digested peptide within the first hour)	
CC(C)C[C@H](NC(=O)[C@H](Cc1ccccc1)NC(=O)CNC(=O)[C@H](CC(C)C)NC(=O)[C@H](CCCNC(=N)N)NC(=O)[C@H](Cc1ccccc1)NC(=O)CNC(=O)[C@H](Cc1ccc(O)cc1)NC(=O)[C@@H](N)CO)C(=O)O [p53 106-114]	high	+/− (Peptides that displayed IC50 at 20 °C of more than twice the IC50 at 4 °C but IC50 < 15 μM were considered to bind with intermediate stability.)	+ (Major cleavage sites are defined as more than >1% of total digested peptide within the first hour)	+ (Major cleavage sites are defined as more than >1% of total digested peptide within the first hour)	+ (Major cleavage sites are defined as more than >1% of total digested peptide within the first hour)	HLA binding Affinity (Table 5) (HLA-A*2401 [1]; HLA type A24): high; HLA binding Stability (Table 5) (HLA-A*2401 [2]; HLA type A24): +/− (Peptides that displayed IC50 at 20 °C of more than twice the IC50 at 4 °C but IC50 < 15 μM were considered to bind with intermediate stability.)
CC(C)C[C@H](NC(=O)[C@@H](N)Cc1ccccc1)C(=O)N[C@@H](Cc1c[nH]cn1)C(=O)N[C@@H](CO)C(=O)NCC(=O)N[C@H](C(=O)N[C@@H](C)C(=O)N[C@@H](CCCCN)C(=O)N[C@@H](CO)C(=O)N[C@H](C(=O)O)C(C)C)[C@@H](C)O [p53 113-122]			+ (Major cleavage sites are defined as more than >1% of total digested peptide within the first hour)	+ (Major cleavage sites are defined as more than >1% of total digested peptide within the first hour)	+ (Major cleavage sites are defined as more than >1% of total digested peptide within the first hour)	HLA binding Stability (Table 5) (HLA-A*0201; HLA type A2, value in hours): 6 h; Peptide Binding Stability (HLA-A*0201; HLA-A*0201, p53 peptides): 6 h
CC(C)[C@H](NC(=O)[C@H](CO)NC(=O)[C@H](CCCCN)NC(=O)[C@H](C)NC(=O)[C@@H](NC(=O)CN)[C@@H](C)O)C(=O)N[C@H](C(=O)N[C@@H](CS)C(=O)N[C@H](C(=O)N[C@@H](Cc1ccc(O)cc1)C(=O)O)[C@@H](C)O)[C@@H](C)O [p53 117-126]						HLA binding Stability (Table 5) (HLA-A*0101): + (Stable peptides displayed IC50 at 20 °C that deviated <2 times of the IC50 at 4° C.); Peptide Binding Stability (HLA-A*0101): + (Stable peptides displayed IC50 at 20 °C that deviated <2 times of the IC50 at 4° C.); HLA binding Stability (Table 5) (HLA-A*0301; HLA type A3): − (The rest was designated as unstable peptide binding.); Peptide Binding Stability (HLA-A*0301; HLA-A*0301, IC50 at 20° C. vs 4° C.): − (The rest was designated as unstable peptide binding.)
CSCC[C@H](NC(=O)[C@H](CCCCN)NC(=O)[C@H](CC(N)=O)NC(=O)[C@H](CC(C)C)NC(=O)[C@H](C)NC(=O)[C@@H]1CCCN1C(=O)[C@H](CO)NC(=O)[C@H](Cc1ccc(O)cc1)NC(=O)[C@@H](N)[C@@H](C)O)C(=O)N[C@@H](Cc1ccccc1)C(=O)O [p53 125-134]	high	+ (Stable peptides displayed IC50 at 20 °C that deviated <2 times of the IC50 at 4° C.)				pIC50 (HLA-A*2401 [1]; HLA-A*2401, IC50 category, read-out: Peptide Binding Affinity): > 5.30; generation / processing by household and immunoproteasomes, in words (proteasome): not/inefficiently processed
CC(C)C[C@H](NC(=O)[C@H](CC(N)=O)NC(=O)CNC(=O)[C@H](CCC(=O)O)NC(=O)[C@@H](NC(=O)[C@@H](N)CCCNC(=N)N)C(C)C)C(=O)N[C@@H](CCCNC(=N)N)C(=O)N[C@H](C(=O)N[C@@H](CCC(=O)O)C(=O)N[C@@H](Cc1ccc(O)cc1)C(=O)O)C(C)C [p53 196-205]						HLA binding Stability (Table 5) (HLA-A*0101): + (Stable peptides displayed IC50 at 20 °C that deviated <2 times of the IC50 at 4° C.); Peptide Binding Stability (HLA-A*0101): + (Stable peptides displayed IC50 at 20 °C that deviated <2 times of the IC50 at 4° C.)
CC(C)C[C@H](NC(=O)[C@@H](N)CC(C)C)C(=O)NCC(=O)N[C@@H](CCCNC(=N)N)C(=O)N[C@@H](CC(N)=O)C(=O)N[C@@H](CO)C(=O)N[C@@H](Cc1ccccc1)C(=O)N[C@@H](CCC(=O)O)C(=O)N[C@H](C(=O)O)C(C)C [p53 264-272]						generation / processing by household and immunoproteasomes, in words (proteasome): not well processed
